The record followed here is US9445589B2, “Active compounds combinations comprising a lipo-chitooligosaccharide derivative and a nematicide, insecticidal or fungicidal compound” (Bayer CropScience AG, priority 2012, dated 2016).

Structures are written as SMILES.

The assay has as its system Maize seedlings. Nature of the assay: Maize seedlings shoot weight (seed treatment, greenhouse). The assay is classed as in vivo. On the procedure:
Maize seeds are grown in loamy sand in the greenhouse at 20 C and 70% humidity for 11 days. After 11 days seedlings were cut off above the soil and fresh weight was determined. Compounds are applied at the following concentration: Poncho™ (pesticidal product comprising clothianidin as active ingredient): 250 μg of clothianidin/kernel; VOTiVO™ (product based on the natural soil bacteria Bacillus firmus (strain I-1582): 50 μg/kernel; Compound A of formula (I): 0.01 μg/kernel. The test is evaluated 11 days after the application. 100% means shoot weight which corresponds to that of the untreated control. Efficacy means in this case the additional % of shoot weight in comparison to that of the untreated control.

Turning to `CCCCCC/C=C\CCCOc1cccc(C(=O)N[C@@H]2C(O[C@H]3C(O)C(NC(C)=O)C(OC4C(CO)O[C@@H](O[C@H]5C(O)C(NC(C)=O)C(OC6C(CO)OC(O)[C@@H](NC(C)=O)[C@@H]6O)O[C@H]5CO)[C@@H](NC(C)=O)[C@@H]4O)O[C@H]3CO)OC(CO)[C@@H](O)[C@@H]2O)c1` (stereo partly drawn) [Compound A of formula (I)], the Efficacy % (additional % of shoot weight in comparison to untreated control, 11 days after application) came out at 7%. Where the note is “fresh weight after 11 days in loamy sand, greenhouse 20 C, 70% humidity, clothianidin 250 μg/kernel, VOTiVO 50 μg/kernel, Compound A 0.01 μg/kernel”, the “Seedling shoot weight (g) (Average on 3 replicates)” value stood at 15.3 g. Where the note is “shoot weight relative to untreated control (100%), 11 days after application, same application rates”, this compound returned a Found % of 107%.
